Laboratory results taken from patent US20240116910A1, “Heterocycles as WIP1 Inhibitors” (PMV Pharmaceuticals, Inc., priority 2022, published 2024).

Molecular target: recombinant His-tag Wip1(2-420) protein (amino acids #2-420) (Homo sapiens (Human), UniProt O15297)
Assay: Wip1(2-420) phosphatase enzyme FDP assay
Format: biochemical
Conditions: fluorescein diphosphate (FDP) substrate, RT 2 hours, fluorescence Ex485/Em535; read-out: WIP1 (Truncated 2-420) FDP Assay: IC50

Chain of recombinant His-tag Wip1(2-420) protein (amino acids #2-420) (O15297 2-420): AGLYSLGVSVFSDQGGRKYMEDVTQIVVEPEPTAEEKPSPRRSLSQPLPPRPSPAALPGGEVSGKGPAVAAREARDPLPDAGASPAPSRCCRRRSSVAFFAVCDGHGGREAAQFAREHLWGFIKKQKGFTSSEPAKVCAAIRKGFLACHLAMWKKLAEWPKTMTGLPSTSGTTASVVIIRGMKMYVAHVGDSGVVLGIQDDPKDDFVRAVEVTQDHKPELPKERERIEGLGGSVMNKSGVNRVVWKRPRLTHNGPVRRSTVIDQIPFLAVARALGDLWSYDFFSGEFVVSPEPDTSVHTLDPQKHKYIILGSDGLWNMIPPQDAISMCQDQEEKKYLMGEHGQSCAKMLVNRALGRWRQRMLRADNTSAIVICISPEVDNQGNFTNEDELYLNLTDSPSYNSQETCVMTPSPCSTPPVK

SMILES	IC50
Cc1ncc(Cl)cc1NC(Cc1cnn(C)c1)c1ccc(C(=O)N[C@@H](CC2CCCC2)C(=O)NC2CC2)s1 (stereo partly drawn) [Compound 188, (2S)-2-[(5-{1-[(5-chloro-2-methylpyridin-3-yl)amino]-2-(1-methyl-1H-pyrazol-4-yl)ethyl}thiophen-2-yl)formamido]-3-cyclopentyl-N-cyclopropylpropanamide]	0.011 µM
C[C@H](Nc1cc(Cl)cnc1C(F)(F)F)c1ccc(C(=O)N[C@@H](CC2CCCC2)C(=O)NC2CC2)s1 [Compound 189, (2S)-2-({5-[(1S)-1-{[5-chloro-2-(trifluoromethyl)pyridin-3-yl]amino}ethyl]thiophen-2-yl}formamido)-3-cyclopentyl-N-cyclopropylpropanamide]	0.01 µM
C[C@@H](Nc1cc(Cl)cnc1C(F)(F)F)c1ccc(C(=O)N[C@@H](CC2CCCC2)C(=O)NC2CC2)s1 [Compound 190, (2S)-2-({5-[(1R)-1-{[5-chloro-2-(trifluoromethyl)pyridin-3-yl]amino}ethyl]thiophen-2-yl}formamido)-3-cyclopentyl-N-cyclopropylpropanamide]	0.224 µM
Cc1ncc(Cl)cc1NC(Cn1cccn1)c1ccc(C(=O)N[C@@H](CC2CCCC2)C(=O)NC2CC2)s1 (stereo partly drawn) [Compound 191, (2S)-2-[(5-{1-[(5-chloro-2-methylpyridin-3-yl)amino]-2-(1H-pyrazol-1-yl)ethyl}thiophen-2-yl)formamido]-3-cyclopentyl-N-cyclopropylpropanamide]	0.013 µM
CC(Nc1cc(Cl)cnc1C(C)(C)C#N)c1ccc(C(=O)N[C@@H](CC2CCCC2)C(=O)NC2CC2)s1 (some centres unmarked) [Compound 192]	0.408 µM

Continued by falling IC50, values first:

IC50	SMILES
0.316 µM	C[C@@H](Nc1cc(Cl)cnc1C(C)(C)O)c1ccc(C(=O)N[C@@H](CC2CCCC2)C(=O)NC2CC2)s1 [Compound 193, (2S)-2-({5-[(1R)-1-{[5-chloro-2-(2-hydroxypropan-2-yl)pyridin-3-yl]amino}ethyl]thiophen-2-yl}formamido)-3-cyclopentyl-N-cyclopropylpropanamide]
0.019 µM	CC(Nc1cc(Cl)cnc1C(F)(F)F)c1ccc(C(=O)N[C@@H](CC2CCCC2)C(=O)NC2CC2)s1 (stereo partly drawn) [Compound 202, (2S)-2-{[5-(1-{[5-chloro-2-(trifluoromethyl)pyridin-3-yl]amino}ethyl)thiophen-2-yl]formamido}-3-cyclopentyl-N-cyclopropylpropanamide]
0.007 µM	Cc1ncc(Cl)cc1N[C@@H](C)c1ccc(C(=O)N[C@@H](CC2CC3CC3C2)C(=O)NC2CC2)s1 (stereo partly drawn) [Compound 201, (2S)-3-{bicyclo[3.1.0]hexan-3-yl}-2-({5-[(1S)-1-[(5-chloro-2-methylpyridin-3-yl)amino]ethyl]thiophen-2-yl}formamido)-N-cyclopropylpropanamide]
0.006 µM	C[C@H](Nc1cc(Cl)cnc1C(C)(C)O)c1ccc(C(=O)N[C@@H](CC2CCCC2)C(=O)NC2CC2)s1 [Compound 194, (2S)-2-({5-[(1S)-1-{[5-chloro-2-(2-hydroxypropan-2-yl)pyridin-3-yl]amino}ethyl]thiophen-2-yl}formamido)-3-cyclopentyl-N-cyclopropylpropanamide]
0.006 µM	CNC(=O)c1ncc(Cl)cc1N[C@@H](C)c1ccc(C(=O)N[C@@H](CC2CCCC2)C(=O)NC2CC2)s1 [Compound 196, 5-chloro-3-{[(1S)-1-(5-{[(1S)-2-cyclopentyl-1-(cyclopropylcarbamoyl)ethyl]carbamoyl}thiophen-2-yl)ethyl]amino}-N-methylpyridine-2-carboxamide]
0.003 µM	Cc1ncc(Cl)cc1N[C@@H](C)c1ccc(C(=O)N[C@@H](CC2CCCC2)C(=O)Nc2ccc3cnccc3c2)s1 [Compound 195, (2S)-2-({5-[(1S)-1-[(5-chloro-2-methylpyridin-3-yl)amino]ethyl]thiophen-2-yl}formamido)-3-cyclopentyl-N-(isoquinolin-6-yl)propanamide]
